# Data from US11214594B2, “Antimicrobial peptide having synergistic antibacterial effect with antibiotics on multidrug resistant bacteria, and use thereof” (priority 2016, dated 2022).
# Where a SMILES comes first, the peptide text is derived from it.
# Key:
# MDREC 1229 [1] = assay: microbe, parasite or virus in culture; assay type: cell-based, Escherichia coli
# Method in brief: (§1)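 Broth microdilution in MH medium: strains diluted to 2×10^6 CFU were mixed with equal volumes of twofold serial peptide dilutions in MH medium. MIC was taken as the lowest peptide concentration preventing bacterial growth.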
# E. coli = assay: microbe, parasite or virus in culture; assay type: cell-based, Escherichia coli; details: 16 h
# Method in brief: as §1
# P. aeruginosa = assay: microbe, parasite or virus in culture; assay type: cell-based, Pseudomonas aeruginosa
# Method in brief: as §1
# MDRAB 12035 = assay: MIC of antimicrobial peptide during combined treatment with antibiotic; assay type: cell-based, Acinetobacter baumannii
# Method in brief: (§2)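 Strains in MH medium at 2×10^6 CFU/ml were mixed with peptide diluted stepwise (2:1) from its MIC, then antibiotic dilutions in MH medium were added to give the antibiotic MIC. The reversed set-up, peptide titrated against fixed antibiotic, gave the peptide MIC.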
# A. baumannii [2] = assay: as above; assay type: cell-based, Acinetobacter baumannii
# Method in brief: as §2
# B. subtilis = assay: microbe, parasite or virus in culture; assay type: cell-based, Bacillus subtilis
# Method in brief: as §1
# A. baumannii [3] = assay: MIC of antibiotic during combined treatment with antimicrobial peptide; assay type: cell-based, Acinetobacter baumannii; details: for Antibiotic MIC, Erythromycin / Antibiotic MIC, Linezolid / Antibiotic MIC, Vancomycin: A. baumannii
# Method in brief: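 Checkerboard-type MIC of peptide–antibiotic mixtures in MH medium: the antibiotic was serially diluted in MH medium and added to wells, then the reversed arrangement was also tested.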
# MDREC 1229 [4] = assay: as above; assay type: cell-based, Escherichia coli
# Method in brief: as §2
# [5] = erythromycin 4 μg/ml (Conc./MIC 1/8)
# [6] = erythromycin 8 μg/ml (Conc./MIC 1/4)
# [7] = erythromycin 16 μg/ml (Conc./MIC 1/2)
# [8] = erythromycin 32 μg/ml (Conc./MIC 1)
# [9] = vancomycin 512 μg/ml (Conc./MIC 1/2)
# [10] = vancomycin 1024 μg/ml (Conc./MIC 1)
# [11] = combined with peptide at 1 μg/ml
# [12] = combined with peptide at 2 μg/ml
# [13] = combined with peptide at 4 μg/ml
# [14] = combined with peptide at 6 μg/ml
# [15] = combined with peptide at 8 μg/ml
# [16] = combined with peptide at 16 μg/ml
# [17] = combined with peptide at 32 μg/ml
# [18] = combined with peptide at 64 μg/ml
# [19] = peptide treatment concentration 1 μg/ml
# [20] = peptide treatment concentration 2 μg/ml
structure (smiles),measurement,setting,value
"CC[C@H](C)[C@H](NC(=O)[C@H](CCCCN)NC(=O)[C@H](Cc1c[nH]c2ccccc12)NC(=O)[C@@H](N)CCCNC(=N)N)C(=O)N[C@@H](Cc1ccccc1)C(=O)N[C@@H](CCCCN)C(=O)N[C@@H](CCCCN)C(=O)N[C@H](C(=O)N1CCC[C@H]1C(=O)N[C@@H](CCCCN)C(=O)N[C@@H](Cc1ccccc1)C(=O)N[C@@H](CC(C)C)C(=O)N[C@@H](Cc1c[nH]cn1)C(=O)N[C@@H](CCC(=O)O)C(=O)N[C@@H](C)C(=O)N[C@@H](CCCCN)C(=O)N[C@@H](CCCCN)C(=O)N[C@@H](Cc1c[nH]c2ccccc12)C(N)=O)[C@@H](C)CC [PapMA-14, RWK IFK KIP KFL HEA KKW-NH2] (H-RWKIFKKIPKFLHEAKKW-NH2; N-terminus assumed)",Minimal inhibitory concentration MIC,MDREC 1229 [1],16 µg/mL
same,"Peptide MIC, peptide alone",MDREC 1229 [1],16 µg/mL
same,Minimal inhibitory concentration MIC,E. coli,8 µg/mL
same,Minimal inhibitory concentration MIC,P. aeruginosa,64 µg/mL
same,Peptide MIC during treatment with erythromycin,MDRAB 12035; [5],4 µg/mL
same,Peptide MIC during treatment with erythromycin,MDRAB 12035; [6],2 µg/mL
same,Peptide MIC during treatment with erythromycin,MDRAB 12035; [7],1 µg/mL
same,Peptide MIC during treatment with erythromycin,MDRAB 12035; [8],0 µg/mL
same,Peptide MIC during treatment with linezolid,MDRAB 12035; linezolid 64 μg/ml (Conc./MIC 1/8),2 µg/mL
same,Peptide MIC during treatment with linezolid,MDRAB 12035; linezolid 512 μg/ml (Conc./MIC 1),0 µg/mL
same,Peptide MIC during treatment with linezolid,MDRAB 12035; linezolid […] (Conc./MIC 1/2),1 µg/mL
same,Peptide MIC during treatment with linezolid,MDRAB 12035; linezolid […] (Conc./MIC 1/4),1 µg/mL
same,Peptide MIC during treatment with vancomycin,MDRAB 12035; [9],1 µg/mL
same,Peptide MIC during treatment with vancomycin,MDRAB 12035; [10],1 µg/mL
same,Peptide MIC during treatment with vancomycin,MDRAB 12035; vancomycin […] (Conc./MIC 1/4),2 µg/mL
same,Peptide MIC during treatment with vancomycin,MDRAB 12035; vancomycin […] (Conc./MIC 1/8),2 µg/mL
same,Peptide MIC during treatment with antibiotic,A. baumannii [2]; [5],4 µg/mL
same,Peptide MIC during treatment with antibiotic,A. baumannii [2]; [6],2 µg/mL
same,Peptide MIC during treatment with antibiotic,A. baumannii [2]; [7],1 µg/mL
same,Peptide MIC during treatment with antibiotic,A. baumannii [2]; [8],0 µg/mL
same,Peptide MIC during treatment with antibiotic,A. baumannii [2]; linezolid 32 μg/ml (Conc./MIC 1/8),2 µg/mL
same,Peptide MIC during treatment with antibiotic,A. baumannii [2]; linezolid 64 μg/ml (Conc./MIC 1/4),2 µg/mL
same,Peptide MIC during treatment with antibiotic,A. baumannii [2]; linezolid […] (Conc./MIC 1),0 µg/mL
same,Peptide MIC during treatment with antibiotic,A. baumannii [2]; linezolid […] (Conc./MIC 1/2),1 µg/mL
same,Peptide MIC during treatment with antibiotic,A. baumannii [2]; [9],0.25 µg/mL
same,Peptide MIC during treatment with antibiotic,A. baumannii [2]; [10],0 µg/mL
same,Peptide MIC during treatment with antibiotic,A. baumannii [2]; vancomycin […] (Conc./MIC 1/4),0.5 µg/mL
same,Peptide MIC during treatment with antibiotic,A. baumannii [2]; vancomycin […] (Conc./MIC 1/8),2 µg/mL
same,Minimal inhibitory concentration MIC,B. subtilis,>128 µg/mL
same,Synergistic effect of antibacterial activity with existing antibiotics compared with PapMA-1,A. baumannii [3]; A. baumannii and MDRAB 12035,higher level than the PapMA-1 peptide
same,"Antibiotic MIC, Erythromycin",A. baumannii [3]; [11],16 µg/mL
same,"Antibiotic MIC, Linezolid",A. baumannii [3]; [11],128 µg/mL
same,"Antibiotic MIC, Vancomycin",A. baumannii [3]; [11],>128 µg/mL
same,"Antibiotic MIC, Erythromycin",A. baumannii [3]; [12],8 µg/mL
same,"Antibiotic MIC, Linezolid",A. baumannii [3]; [12],32 µg/mL
same,"Antibiotic MIC, Vancomycin",A. baumannii [3]; [12],64 µg/mL
same,"Antibiotic MIC, Erythromycin",A. baumannii [3]; [13],2 µg/mL
same,"Antibiotic MIC, Linezolid",A. baumannii [3]; [13],8 µg/mL
same,"Antibiotic MIC, Vancomycin",A. baumannii [3]; [13],8 µg/mL
same,"Antibiotic MIC, Erythromycin",A. baumannii [3]; [14],0.5 µg/mL
same,"Antibiotic MIC, Linezolid",A. baumannii [3]; [14],1 µg/mL
same,"Antibiotic MIC, Vancomycin",A. baumannii [3]; [14],2 µg/mL
same,"Antibiotic MIC, Erythromycin",A. baumannii [3]; [15],0.25 µg/mL
same,"Antibiotic MIC, Linezolid",A. baumannii [3]; [15],0.5 µg/mL
same,"Antibiotic MIC, Vancomycin",A. baumannii [3]; [15],1 µg/mL
same,"Antibiotic MIC, Erythromycin",A. baumannii [3]; [16],0 µg/mL
same,"Antibiotic MIC, Linezolid",A. baumannii [3]; [16],0 µg/mL
same,"Antibiotic MIC, Vancomycin",A. baumannii [3]; [16],0 µg/mL
same,"Antibiotic MIC, Erythromycin",A. baumannii [3]; [17],0 µg/mL
same,"Antibiotic MIC, Linezolid",A. baumannii [3]; [17],0 µg/mL
same,"Antibiotic MIC, Vancomycin",A. baumannii [3]; [17],0 µg/mL
same,"Antibiotic MIC, Erythromycin",A. baumannii [3]; [18],0 µg/mL
same,"Antibiotic MIC, Linezolid",A. baumannii [3]; [18],0 µg/mL
same,"Antibiotic MIC, Vancomycin",A. baumannii [3]; [18],0 µg/mL
same,"Antibiotic MIC, Erythromycin",MDREC 1229 [4]; [19],128 µg/mL
same,"Antibiotic MIC, Linezolid",MDREC 1229 [4]; [19],>128 µg/mL
same,"Antibiotic MIC, Vancomycin",MDREC 1229 [4]; [19],>128 µg/mL
same,"Antibiotic MIC, Erythromycin",MDREC 1229 [4]; [20],32 µg/mL
same,"Antibiotic MIC, Linezolid",MDREC 1229 [4]; [20],128 µg/mL
same,"Antibiotic MIC, Vancomycin",MDREC 1229 [4]; [20],>128 µg/mL
